Results: patent US20260274794A1, “COMPOUNDS, COMPOSITIONS, AND METHOD OF INHIBITING TAU PROTEIN AND ALPHASYNUCLEIN AGGREGATION” (Purdue Research Foundation, priority 2023, published 2026)
Entries after “also recorded” stand apart in the source; their conditions may differ.

How the values were obtained:
tau isoform 2N4R = target: T1, tau isoform 2N4R (Homo sapiens, UniProt P10636); assay: PICUP assay of tau isoform 2N4R oligomerization; type: biochemical; settings: compound 50 μM
T1 construct: made in house; host or cells: E. coli BL21 (DE3), vector pRK172
Protocol: (§1) To force the oligomerization by cross-linking, α-syn (from Rpeptide, LLC) and tau isoform 2N4R were diluted in 10 mM phosphate buffer (pH 7.4) to reach a final concentration of 10 μM [27]. Different compounds were added to the protein solution at a final concentration of 50 μM, resulting in a molar ratio of 1:5. To confirm the gradual effect of the compounds on the inhibition of α-syn oligomerization, compounds were tested at final concentration of 3.125, 6.25, 12.5, 25, and 50 μM. The controls consisted of samples without light exposition, without Ru(bpy), and without compound (i.e., 0.125% DMSO). The cross-linking reaction was initiated by the addition of 2 μL of Ru(bpy) (300 μM final concentration) and 2 μL ammonium persulfate (6 mM final concentration). Samples were irradiated immediately. Light exposition was of 1 second duration for ca-syn and 3 second duration for tau isoform 2N4R, with a 53 W (120 V) incandescent lamp installed in a homemade dark-box. Each tube contained a final volume of 20 μL. After irradiation, 8.3 μL. of Lammeli loading buffer containing 15% β-mercaptoethanol was immediately added to the solution, followed by incubation at 95° C. for 10 minutes. The cross-linked samples were separated on a 16% SDS-Page gel and visualized by Coomassie blue staining.
(§2) One end point used to verify the propensity of misfolded protein in the drug discovery field is the inhibition of oligomer formation. The photo-induced cross-linking of unmodified proteins (PICUP) assay was used to investigate α-syn (60 μM) and tau isoform 2N4R (6 μM) oligomerization in the presence of eight amide compounds (2, 4, 5, 6, 7, 8, 13, and 17 at 50 μM, i.e., ~molar ratio 1:8 for tau). After being subjected to short light exposure, α-syn and tau were cross-linked and Coomassie-stained resolved as a higher molecular weight compared to control (0.125% DMSO). […] Compound 13 was used as a negative control for the α-syn PICUP.
(§3) PICUP assays were performed with different concentrations (50 μM, 25 μM, 12.5 μM, 6.25 μM, 3.125 μM; control=0.125% DMSO) for each lead compound.

α-syn = α-syn (Homo sapiens, UniProt P37840); assay: PICUP assay of α-syn oligomerization; type: biochemical; set-up: purchased rPeptide, LLC (Watkinsville, GA); settings: for α-syn oligomerization (PICUP crosslinking): compound 50 μM; for α-syn oligomer formation, PICUP dose-response: compound 3.125-50 μM
Protocol: as §1, §2, §3

[1] = Brain and plasma concentration after administration; type: in vivo; settings: 1 mg/kg
Protocol: For compound 8, the brain concentration and plasma concentration ratio is equal to more than 1 for the 3 time points (0.08, 0.5 and 1 hour) where the compound was detected, which is adequate.

[2] = Mouse microsomal stability; type: in vitro ADME

T1 sequence (P10636 1-441 isoform P10636-8): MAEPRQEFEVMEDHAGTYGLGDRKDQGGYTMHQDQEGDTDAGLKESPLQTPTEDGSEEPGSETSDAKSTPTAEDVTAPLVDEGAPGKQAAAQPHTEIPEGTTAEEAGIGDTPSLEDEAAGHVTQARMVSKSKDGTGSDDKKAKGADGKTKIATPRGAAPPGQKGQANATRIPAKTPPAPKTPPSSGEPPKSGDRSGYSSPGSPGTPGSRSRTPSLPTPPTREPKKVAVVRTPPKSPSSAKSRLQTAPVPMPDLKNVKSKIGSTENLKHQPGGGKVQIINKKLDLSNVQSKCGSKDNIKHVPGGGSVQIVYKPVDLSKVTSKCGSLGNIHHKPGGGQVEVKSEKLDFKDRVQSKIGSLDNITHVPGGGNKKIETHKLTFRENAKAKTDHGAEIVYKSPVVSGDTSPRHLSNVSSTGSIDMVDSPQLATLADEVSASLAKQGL

α-syn oligomerization (PICUP crosslinking) (α-syn) | Half-life [1] | Kp ([1]; brain and plasma, 0.08, 0.5 and 1 hour, read-out: brain concentration and plasma concentration ratio) | Mouse microsomal stability [2] [%] | Structure (SMILES) | tau isoform 2N4R oligomerization (PICUP crosslinking) (tau isoform 2N4R) | α-syn oligomer formation, PICUP dose-response (α-syn) | detection of compound over time [1]
effectively prevented this crosslinking | – | – | – | O=C(Nc1cccc2[nH]ccc12)c1ccccc1 [Compound 2, N-(1H-indol-4-yl)benzamide] | effectively prevented this crosslinking; also recorded: prevented tau 2N4R oligomer formation | prevented α-syn oligomer formation in a dose-dependent manner | –
effectively prevented this crosslinking | presumed to be short | > 1 | 70 | O=C(Nc1cccc2[nH]ccc12)c1ccc(F)cc1 [Compound 8, 4-fluoro-N-(1H-indol-4-yl)benzamide] | effectively prevented this crosslinking; also recorded: prevented tau 2N4R oligomer formation | prevented α-syn oligomer formation in a dose-dependent manner | not detected beyond the time point of 60 min
